In publication PMC11783601, “Analogue-Sensitive Inhibition of Histone Demethylases Uncovers Member-Specific Function in Ribosomal Protein Synthesis” (Journal of the American Chemical Society, 2025):
Entries after “also recorded” stand apart in the source; their conditions may differ.

Key:
Test in all cases: H3K9me3 Western blot of nuclear extracts of transfected HEK293T cells
Format in all cases: cell-based
full-length KDM4C-F187A = biological target: T1, full-length KDM4C-F187A (Homo sapiens, UniProt Q9H3R0, F187A); conditions: 25-200 µM
T1 construct: we generated the full-length as mutants of the remaining KDM4s; host or cells: HEK293T
T1 sequence (Q9H3R0 whole entry F187A): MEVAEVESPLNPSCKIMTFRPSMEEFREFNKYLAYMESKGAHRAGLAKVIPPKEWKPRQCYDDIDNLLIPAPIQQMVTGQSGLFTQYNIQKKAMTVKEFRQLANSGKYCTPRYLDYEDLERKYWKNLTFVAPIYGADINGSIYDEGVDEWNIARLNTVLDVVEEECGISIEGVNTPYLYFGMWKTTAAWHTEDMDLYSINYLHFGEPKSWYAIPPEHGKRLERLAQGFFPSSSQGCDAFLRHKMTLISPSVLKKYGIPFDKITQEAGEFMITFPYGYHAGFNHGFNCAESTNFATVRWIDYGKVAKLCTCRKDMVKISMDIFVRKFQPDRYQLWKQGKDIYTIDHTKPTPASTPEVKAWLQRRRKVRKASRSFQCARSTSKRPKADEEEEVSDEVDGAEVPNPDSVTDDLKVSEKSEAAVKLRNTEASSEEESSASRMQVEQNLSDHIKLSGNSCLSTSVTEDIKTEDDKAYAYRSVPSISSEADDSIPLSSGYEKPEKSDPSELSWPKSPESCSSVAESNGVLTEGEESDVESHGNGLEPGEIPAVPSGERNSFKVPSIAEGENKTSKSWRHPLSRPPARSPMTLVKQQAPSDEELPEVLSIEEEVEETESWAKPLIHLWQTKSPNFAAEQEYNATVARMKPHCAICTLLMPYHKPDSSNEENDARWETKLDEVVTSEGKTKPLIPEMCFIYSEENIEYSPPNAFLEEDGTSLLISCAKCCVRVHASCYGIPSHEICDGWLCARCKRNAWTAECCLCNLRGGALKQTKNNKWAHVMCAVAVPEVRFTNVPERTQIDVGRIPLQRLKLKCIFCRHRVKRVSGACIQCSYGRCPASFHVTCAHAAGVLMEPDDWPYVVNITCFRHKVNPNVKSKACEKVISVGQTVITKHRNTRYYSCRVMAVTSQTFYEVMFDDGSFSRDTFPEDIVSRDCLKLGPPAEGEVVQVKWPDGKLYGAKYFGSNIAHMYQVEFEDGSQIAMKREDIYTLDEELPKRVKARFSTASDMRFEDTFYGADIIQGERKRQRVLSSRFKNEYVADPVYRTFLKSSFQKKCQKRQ
Source text: (§1) KDM4B and C are structurally homologous to KDM4A, and KDM4D and E have a catalytic pocket near-identical to that of KDM4A but lack the Tudor and PHD domains known to bind trimethylated lysine in histones (Figure 1B).[11] HEK293T cells were transfected with full-length wild type KDM4B-E or their respective mutants. Western blot analysis of nuclear preparations using the H3K9me3 antibody confirmed all of the proteins to be catalytically active (Figures 4G–N and S32–S35).
(§2) KDM4A mammalian expression plasmid in CMV vector was purchased from Addgene (plasmid #24180). KDM4B mammalian expression plasmid in CMV vector was purchased from Addgene (plasmid #24181). KDM4C mammalian expression plasmid in CMV vector was purchased from Addgene (plasmid #24214). KDM4D mammalian expression plasmid in pReciever vector was purchased from Genecopoia (EX-Z0917-M06.) KDME mammalian expression plasmid in pRP-EXP was designed from Vector Builder. The KDM4A-F185A, KDM4B-F186A, KDM4C -F187A, KDM4D-F189A, and KDM4E F186A mutants were generated using Quikchange Lightening Mutagenesis Kit (Agilent) according to manufacturer’s protocol and confirmed by Sanger […]
(§3) HEK293T/17 cells (ATCC) were grown in Delbucco’s Modified Eagle Medium (DMEM) (Corning) with 10% FBS at 37 °C (Corning), 5% CO2, and 95% relative humidity in a 6-well cell culture plate. When cells reached 90% confluency, 3 µg of plasmid and 6 µg lipofectamine 2000 (Invitrogen: 11668019) were incubated with 100 µL OptiMem. After 5 minutes the plasmid and lipofectamine were combined and incubated at room temperature for 20 minutes and added to the cell culture disk. Cells were returned to the incubator to grow for 4-6 hours. This was followed by treatment of compound treatment (n-octyl IOX121,22 or a specific NOG ester) at indicated concentrations and further culture for specified time. The media was removed, and cells were washed with ice cold PBS (Corning), then trypsinized with TrpLE Express (Gibco). The trypsinization reaction was quenched with DMEM 10% FBS and cells were pelleted then washed once with ice cold PBS. The nuclear extracts were generated by first resuspending the cell pellets in 700 µL nuclear isolation buffer (15 mM Tris pH 7.5, 60 mM KCl, 15 mM NaCl, 5 mM MgCl2, 1 mM CaCl2, 1mm DTT, 2 mM Na3Van, 250 mM sucrose, 1X Pierce protease inhibitor (Thermo Fisher #PIA32955), 1 mM PMSF, 0.3% NP40 diluted to volume with MilliQ H2O) and incubated on ice for 5 minutes.23 The samples were then pelleted by centrifugation at 2000 rcf for 5 minutes.
(§4) The supernatant was removed, and the pelleted nuclei were resuspended in 200 µL Pierce IP lysis buffer (Thermo Fisher #87787) containing 1X Pierce protease inhibitor and left on ice for 5 minutes. The nuclei were then sonicated at 100% amp for 5 minutes (pulsed 1 minute “on”, 20 seconds “rest”) using a Qsonica-Q700, cuphorn sonicator. The samples were pelleted once again at 2000 rcf for 5 minutes and the supernatant containing the nuclear extracts were collected. MgCl2 (1M) solution was added to each sample give a final concentration of 6mM. […]
(§5) Prism with the corresponding bars representing the mean and standard deviation of the population.
(§6) For the time dependent imaging, cells containing the transfected KDM4A mutant were identified by their HA signal. These cells were used to create a selection which was then imposed onto the respective H3K9me3 or BrdU images. The mean signal was then measured for H3K9me3 or BrdU only within the cells expressing the KDM4A mutant. To compare changes in H3K9me3 or BrdU between trials, the quantification values were normalized to the mean signal at t=0. The normalized, mean signal and error for H3K9me3 or BrdU were then plotted in GraphPad Prism.
(§7) 21. General protocol for Western blotting
(§8) Assay samples were mixed with appropriate volume of 4X Laemmli Dye (Bio-Rad), heated at 95 °C for 5 minutes and loaded onto 4–12% Criterion™ XT Bis-Tris protein gels (Bio-Rad #3450123) or in-house prepared SDS-polyacrylamide gel and subjected to electrophoresis […]

full-length KDM4E-F186A = biological target: T2, full-length KDM4E-F186A (Homo sapiens, UniProt B2RXH2, F186A); conditions: 25-200 µM
T2 construct: we generated the full-length as mutants of the remaining KDM4s; host or cells: HEK293T
T2 sequence (B2RXH2 whole entry F186A): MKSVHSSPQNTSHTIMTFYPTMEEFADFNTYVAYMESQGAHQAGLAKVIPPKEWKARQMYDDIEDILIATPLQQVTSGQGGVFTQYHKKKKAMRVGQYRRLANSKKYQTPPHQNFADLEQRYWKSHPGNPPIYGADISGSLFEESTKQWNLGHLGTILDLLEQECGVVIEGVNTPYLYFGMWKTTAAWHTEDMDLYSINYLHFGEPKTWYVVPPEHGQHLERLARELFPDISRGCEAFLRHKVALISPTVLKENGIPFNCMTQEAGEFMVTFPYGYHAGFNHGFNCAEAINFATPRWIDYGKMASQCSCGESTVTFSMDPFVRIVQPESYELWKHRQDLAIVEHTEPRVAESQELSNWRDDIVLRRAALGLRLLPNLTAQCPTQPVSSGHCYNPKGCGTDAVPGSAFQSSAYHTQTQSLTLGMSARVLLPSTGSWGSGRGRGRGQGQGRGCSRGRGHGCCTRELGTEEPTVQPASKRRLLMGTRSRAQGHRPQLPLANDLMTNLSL
Source text: as §1, §2, §3, §4, §5, §6, §7, §8

full-length KDM4D-F189A = biological target: T3, full-length KDM4D-F189A (Homo sapiens, UniProt Q6B0I6, F189A); conditions: 25-200 µM
T3 construct: we generated the full-length as mutants of the remaining KDM4s; host or cells: HEK293T
T3 sequence (Q6B0I6 whole entry F189A): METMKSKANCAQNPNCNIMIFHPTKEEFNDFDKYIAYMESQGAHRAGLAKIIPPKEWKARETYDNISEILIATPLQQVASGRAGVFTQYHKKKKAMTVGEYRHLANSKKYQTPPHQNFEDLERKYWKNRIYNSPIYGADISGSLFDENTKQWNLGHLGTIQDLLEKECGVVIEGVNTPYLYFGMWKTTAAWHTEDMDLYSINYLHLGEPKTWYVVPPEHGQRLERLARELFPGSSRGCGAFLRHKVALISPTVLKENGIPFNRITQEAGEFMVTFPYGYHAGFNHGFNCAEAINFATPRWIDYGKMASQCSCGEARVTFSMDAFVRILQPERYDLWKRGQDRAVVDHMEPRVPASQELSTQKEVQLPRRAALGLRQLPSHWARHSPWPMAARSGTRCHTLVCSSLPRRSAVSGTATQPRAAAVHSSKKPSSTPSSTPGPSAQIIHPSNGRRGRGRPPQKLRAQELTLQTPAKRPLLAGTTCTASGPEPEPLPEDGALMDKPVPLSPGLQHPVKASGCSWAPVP
Source text: as §1, §2, §3, §4, §5, §6, §7, §8

[1] = biological target: T4, full-length KDM4A-F185A (asKDM4A) (Homo sapiens, UniProt O75164, F185A); conditions: varying concentrations (25-200 µM)
T4 construct: we generated the F185A mutation in full-length KDM4A carrying all of the functional domains; host or cells: HEK293T
T4 sequence (O75164 whole entry F185A, the tested form may be a part): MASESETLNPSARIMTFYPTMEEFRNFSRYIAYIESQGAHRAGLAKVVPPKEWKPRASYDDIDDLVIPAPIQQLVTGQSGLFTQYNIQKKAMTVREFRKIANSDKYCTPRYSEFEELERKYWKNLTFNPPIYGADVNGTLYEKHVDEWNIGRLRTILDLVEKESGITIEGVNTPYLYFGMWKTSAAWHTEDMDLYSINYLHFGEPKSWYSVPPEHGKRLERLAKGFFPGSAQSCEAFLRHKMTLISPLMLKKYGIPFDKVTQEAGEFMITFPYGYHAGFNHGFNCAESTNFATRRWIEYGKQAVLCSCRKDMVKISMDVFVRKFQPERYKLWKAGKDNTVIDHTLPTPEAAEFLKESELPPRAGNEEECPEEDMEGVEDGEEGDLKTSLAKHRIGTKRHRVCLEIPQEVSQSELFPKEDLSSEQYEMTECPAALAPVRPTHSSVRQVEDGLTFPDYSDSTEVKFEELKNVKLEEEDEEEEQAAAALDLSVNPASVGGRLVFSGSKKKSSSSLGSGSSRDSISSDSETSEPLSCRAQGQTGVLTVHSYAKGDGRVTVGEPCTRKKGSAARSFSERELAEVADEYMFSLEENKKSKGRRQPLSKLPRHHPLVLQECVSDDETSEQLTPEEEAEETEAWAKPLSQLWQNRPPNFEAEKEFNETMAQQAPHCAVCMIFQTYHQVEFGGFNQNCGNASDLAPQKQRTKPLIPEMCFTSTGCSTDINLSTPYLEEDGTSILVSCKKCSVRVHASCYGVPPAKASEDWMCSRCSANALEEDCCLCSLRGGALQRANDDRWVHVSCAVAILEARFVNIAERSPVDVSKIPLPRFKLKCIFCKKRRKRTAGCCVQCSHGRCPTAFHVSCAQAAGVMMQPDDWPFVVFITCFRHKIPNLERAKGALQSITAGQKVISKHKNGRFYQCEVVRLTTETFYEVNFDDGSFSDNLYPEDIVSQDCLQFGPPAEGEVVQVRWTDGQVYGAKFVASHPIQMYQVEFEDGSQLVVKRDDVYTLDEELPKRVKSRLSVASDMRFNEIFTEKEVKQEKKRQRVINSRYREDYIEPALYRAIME
Method: HEK293T cells were transiently transfected with asKDM4A and treated with varying concentrations of 6A or 6B. […] To further confirm the activity of the enzyme–inhibitor pair, we performed tandem mass spectrometry of tryptic histones isolated from HEK293T cells expressing asKDM4A in the presence or absence of 100 μM 6A.
as §2
For the time dependent imaging, cells containing the transfected KDM4A mutant were identified by their HA signal. […] The mean signal was then measured for H3K9me3 or BrdU only within the cells expressing the KDM4A mutant. To compare changes in H3K9me3 or BrdU between trials, the quantification values were normalized to the mean signal at t=0. […]

SMILES	inhibition of KDM4C-F187A H3K9me3 demethylation (full-length KDM4C-F187A)	inhibition of KDM4E-F186A H3K9me3 demethylation (full-length KDM4E-F186A)	inhibition of KDM4D-F189A H3K9me3 demethylation (full-length KDM4D-F189A)	inhibition of asKDM4A (F185A) H3K9me3 demethylation [1]
CCCCCCCCOC(=O)C(=O)NC(CC(C)C)C(=O)O [6A, L-Leu octyl-ester NOG]	Dose-dependent inhibition; also recorded: significantly reduced	Dose-dependent inhibition; also recorded: significantly reduced	Dose-dependent inhibition; also recorded: significantly reduced	Dose-dependent inhibition; also recorded: inhibited by both prodrugs in a dose-dependent manner
CC(C)CC(NC(=O)C(=O)OCc1cccc(C(F)(F)F)c1)C(=O)O [6B, L-Leu TFMB-ester NOG]	significantly reduced	significantly reduced	Inhibition; also recorded: significantly reduced	Dose-dependent inhibition; also recorded: inhibited by both prodrugs in a dose-dependent manner
